From PubChem BioAssay AID252 (DTP/NCI, 2004)
Several values for one entry are separate records, joined by “and”; a condition that tells them apart may be missing. Equal entries are not always repeated. Toxic doses and inconclusive results are not listed.

System: BDF1 mice, intracerebral L1210 leukemia, survival T/C
Experiment: NCI In Vivo Anticancer Drug Screen. Data for tumor model L1210 Leukemia (intracerebral) in B6D2F1 (BDF1) mice
Settings: higher = longer survival
Method in brief: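 Transplantable tumour-bearing mice, compound-treated vs vehicle controls; read-out survival, reported as T/C ratio.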

[1] = endpoint: mean survival time, dose: 15.0 mg/kg/injection, schedule: Q01DX Z (ip), vehicle: saline

SMILES: CC(CN1CC(=O)NC(=O)C1)N1CC(=O)NC(=O)C1 (stereo unspecified)
- T/C (endpoint: mean survival time, dose: 1.56 mg/kg/injection, schedule: Q03HX024 (ip), vehicle: steriod suspending solution): 108 % of control and 118 % of control
- T/C (endpoint: mean survival time, dose: 3.12 mg/kg/injection, schedule: Q03HX024 (ip), vehicle: steriod suspending solution): 162 % of control
- T/C (endpoint: mean survival time, dose: 12.5 mg/kg/injection, schedule: Q01DX009 (ip), vehicle: steriod suspending solution): 124 % of control
- T/C (endpoint: mean survival time, dose: 25.0 mg/kg/injection, schedule: Q03HX024 (ip), vehicle: steriod suspending solution): 180 % of control
- T/C (endpoint: mean survival time, dose: 50.0 mg/kg/injection, schedule: Q04DX003 (ip), vehicle: steriod suspending solution): 122 % of control
- T/C (endpoint: mean survival time, dose: 100.0 mg/kg/injection, schedule: Q01DX009 (ip), vehicle: steriod suspending solution): 97 % of control
- T/C (endpoint: mean survival time, dose: 108.0 mg/kg/injection, schedule: Q04DX003 (ip), vehicle: other): 104 % of control and 122 % of control
- T/C (endpoint: mean survival time, dose: 108.0 mg/kg/injection, schedule: Q04DX003 (ip), vehicle: steriod suspending solution): 108 % of control
- T/C (endpoint: mean survival time, dose: 180.0 mg/kg/injection, schedule: Q04DX003 (ip), vehicle: other): 104 % of control and 118 % of control
- T/C (endpoint: mean survival time, dose: 180.0 mg/kg/injection, schedule: Q04DX003 (ip), vehicle: steriod suspending solution): 108 % of control and 123 % of control
- T/C (endpoint: mean survival time, dose: 200.0 mg/kg/injection, schedule: Q01DX001 (ip), vehicle: steriod suspending solution): 111 % of control
- T/C (endpoint: mean survival time, dose: 400.0 mg/kg/injection, schedule: Q01DX001 (ip), vehicle: steriod suspending solution): 110 % of control
- T/C (endpoint: mean survival time, dose: 500.0 mg/kg/injection, schedule: Q04DX003 (ip), vehicle: other): 107 % of control and 117 % of control
- T/C (endpoint: mean survival time, dose: 500.0 mg/kg/injection, schedule: Q04DX003 (ip), vehicle: steriod suspending solution): 111 % of control and 122 % of control
- T/C (endpoint: mean survival time, dose: 800.0 mg/kg/injection, schedule: Q04DX003 (ip), vehicle: steriod suspending solution): 115 % of control and 86 % of control (2×)
- T/C (endpoint: mean survival time, dose: 833.0 mg/kg/injection, schedule: Q04DX003 (ip), vehicle: Klucel (hydroxypropylcellulose) (HPC)): 103 % of control
- T/C (endpoint: median survival time, dose: 16.0 mg/kg/injection, schedule: Q01DX009 (ip), vehicle: Klucel (hydroxypropylcellulose) (HPC)): 116 % of control
- T/C (endpoint: median survival time, dose: 64.0 mg/kg/injection, schedule: Q01DX009 (ip), vehicle: Klucel (hydroxypropylcellulose) (HPC)): 114 % of control
- T/C (endpoint: median survival time, dose: 108.0 mg/kg/injection, schedule: Q04DX003 (ip), vehicle: Klucel (hydroxypropylcellulose) (HPC)): 118 % of control
- T/C (endpoint: median survival time, dose: 128.0 mg/kg/injection, schedule: Q01DX009 (ip), vehicle: Klucel (hydroxypropylcellulose) (HPC)): 109 % of control and 123 % of control and 95 % of control

SMILES: CN(N=O)C(=O)C(=O)N(C)N=O
- T/C [1]: 98 % of control
- T/C (endpoint: mean survival time, dose: 30.0 mg/kg/injection, schedule: Q01DX Z (ip), vehicle: saline): 97 % of control
- T/C (endpoint: mean survival time, dose: 60.0 mg/kg/injection, schedule: Q01DX Z (ip), vehicle: saline): 98 % of control
- T/C (endpoint: mean survival time, dose: 120.0 mg/kg/injection, schedule: Q01DX Z (ip), vehicle: saline): 98 % of control

SMILES: COC(=O)c1ccccc1N=NN(C)C
- T/C (endpoint: median survival time, dose: 10.0 mg/kg/injection, schedule: Q01DX009 (ip), vehicle: saline with Tween-80): 114 % of control
- T/C (endpoint: median survival time, dose: 20.0 mg/kg/injection, schedule: Q01DX009 (ip), vehicle: saline with Tween-80): 97 % of control

SMILES: O=c1cnn(C2OC(CO)C(O)C2O)c(=O)[nH]1 (stereo unspecified)
- T/C (endpoint: mean survival time, dose: 750.0 mg/kg/injection, schedule: Q01DX Z (ip), vehicle: saline): 158 % of control

SMILES: CC[n+]1c(-c2ccccc2)c2cc(N)ccc2c2ccc(N)cc21
- T/C (endpoint: mean survival time, dose: 1.25 mg/kg/injection, schedule: Q01DX Z (ip), vehicle: saline): 104 % of control
- T/C (endpoint: mean survival time, dose: 2.5 mg/kg/injection, schedule: Q01DX Z (ip), vehicle: saline): 100 % of control
- T/C (endpoint: mean survival time, dose: 5.0 mg/kg/injection, schedule: Q01DX Z (ip), vehicle: saline): 101 % of control
- T/C (endpoint: mean survival time, dose: 7.5 mg/kg/injection, schedule: Q01DX Z (ip), vehicle: saline): 100 % of control
- T/C [1]: 86 % of control

SMILES: CC(=O)OCC1OC(n2cnc3c(=S)nc(N)[nH]c32)C(OC(C)=O)C1OC(C)=O (stereo unspecified)
- T/C (endpoint: mean survival time, dose: 37.5 mg/kg/injection, schedule: Q01DX Z (ip), vehicle: other): 122 % of control

SMILES: O=NN(CCF)C(=O)NC1CCSCC1
- T/C (endpoint: mean survival time, dose: 3.7 mg/kg/injection, schedule: Q01DX001 (ip), vehicle: other): 114 % of control and 123 % of control
- T/C (endpoint: mean survival time, dose: 15.0 mg/kg/injection, schedule: Q01DX001 (ip), vehicle: other): 211 % of control and 223 % of control
- T/C (endpoint: mean survival time, dose: 24.0 mg/kg/injection, schedule: Q01DX001 (ip), vehicle: other): 271 % of control
- T/C (endpoint: mean survival time, dose: 31.0 mg/kg/injection, schedule: Q01DX001 (ip), vehicle: other): 460 % of control and 477 % of control
- T/C (endpoint: mean survival time, dose: 36.0 mg/kg/injection, schedule: Q01DX001 (ip), vehicle: other): 276 % of control
- T/C (endpoint: mean survival time, dose: 54.0 mg/kg/injection, schedule: Q01DX001 (ip), vehicle: other): 303 % of control
- T/C (endpoint: mean survival time, dose: 62.0 mg/kg/injection, schedule: Q01DX001 (ip), vehicle: other): 380 % of control

SMILES: COC1=C(N2CC2)C(=O)C(OC)=C(N2CC2)C1=O
- T/C (endpoint: mean survival time, dose: 0.12 mg/kg/injection, schedule: Q01DX009 (ip), vehicle: saline): 101 % of control
- T/C (endpoint: mean survival time, dose: 0.25 mg/kg/injection, schedule: Q01DX009 (ip), vehicle: saline): 95 % of control
- T/C (endpoint: mean survival time, dose: 0.5 mg/kg/injection, schedule: Q01DX009 (ip), vehicle: saline): 104 % of control and 106 % of control and 98 % of control
- T/C (endpoint: mean survival time, dose: 1.0 mg/kg/injection, schedule: Q01DX009 (ip), vehicle: saline): 105 % of control and 111 % of control and 121 % of control
- T/C (endpoint: mean survival time, dose: 2.0 mg/kg/injection, schedule: Q01DX009 (ip), vehicle: saline): 114 % of control and 117 % of control
- T/C (endpoint: mean survival time, dose: 4.0 mg/kg/injection, schedule: Q01DX009 (ip), vehicle: saline): 86 % of control
